Experimental data taken from PMC7250897, “UDP-glucosyltransferase regulates grain size and abiotic stress tolerance associated with metabolic flux redirection in rice” (Nature Communications, 2020).
Numbering of substitutions follows the chain as printed.

T1: GSA1^WYJ (Oryza sativa, UniProt Q9AUV3, A246V)
T1 construct: gene Os03g0757500; full-length cDNA in pET21a (NdeI/NotI), E. coli BL21(DE3) pLysS, crude extract; WYJ allele A246, A349
T1 sequence (Q9AUV3 1-457 A246V): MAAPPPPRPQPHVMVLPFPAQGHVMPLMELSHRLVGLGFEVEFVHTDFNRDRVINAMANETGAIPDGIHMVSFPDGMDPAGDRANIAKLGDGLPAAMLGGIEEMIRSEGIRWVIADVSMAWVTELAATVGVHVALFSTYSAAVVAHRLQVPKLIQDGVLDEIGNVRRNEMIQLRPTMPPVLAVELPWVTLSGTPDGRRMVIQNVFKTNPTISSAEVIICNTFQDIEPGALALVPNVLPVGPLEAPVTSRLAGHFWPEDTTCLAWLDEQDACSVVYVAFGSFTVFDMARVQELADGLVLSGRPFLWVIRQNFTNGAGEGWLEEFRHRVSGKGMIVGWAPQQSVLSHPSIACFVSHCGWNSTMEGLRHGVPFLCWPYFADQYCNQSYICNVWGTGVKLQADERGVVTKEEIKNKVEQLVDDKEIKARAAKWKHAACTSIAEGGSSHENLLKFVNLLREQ

T2: GSA1^WYJ (Oryza sativa, UniProt Q9AUV3, A349T)
T2 construct: gene Os03g0757500; full-length cDNA in pET21a (NdeI/NotI), E. coli BL21(DE3) pLysS, crude extract; WYJ allele A246, A349
T2 sequence (Q9AUV3 1-457 A349T): T1 sequence (Q9AUV3 1-457 A246V) with V246A, A349T

B1: GSA1^WYJ (Oryza sativa Japonica Group) (protein)
chain: T1 sequence (Q9AUV3 1-457 A246V) with V246A
notes: full-length cDNA in pET21a (NdeI/NotI), E. coli BL21(DE3) pLysS, crude extract; WYJ allele A246, A349

What was measured:
GSA1^WYJ [1] = target: T1, GSA1^WYJ; experiment: HPLC glucosyltransferase assay, product peak area; settings: 250 μM acceptor, 1.5 mM UDP-glucose, 10 mM MgCl2, glycine-NaOH pH 8.6, 37 °C, 2 h
GSA1^WYJ [2] = target: T2, GSA1^WYJ; experiment: HPLC glucosyltransferase assay, product peak area; settings: 250 μM acceptor, 1.5 mM UDP-glucose, 10 mM MgCl2, glycine-NaOH pH 8.6, 37 °C, 2 h
[3] = substrate: O=c1c(O)c(-c2ccc(O)cc2)oc2cc(O)cc(O)c12; experiment: cells, lysate or membranes; settings: sugar acceptor, UDP-glucose as donor, assay buffer 10 mM MgCl2, glycine-NaOH pH 8.6, 37 °C
[4] = substrate: O=c1ccn([C@@H]2O[C@H](CO[P@@](=O)(O)O[P@@](=O)(O)O[C@H]3O[C@H](CO)[C@@H](O)[C@H](O)[C@H]3O)[C@@H](O)[C@H]2O)c(=O)[nH]1; experiment: HPLC glucosyltransferase assay, kinetics; type: biochemical, Oryza sativa; settings: sugar donor, kaempferol as acceptor, 10 mM MgCl2, glycine-NaOH pH 8.6, 37 °C

| Molecule | HPLC glucosyltransferase assay, product peak area (GSA1^WYJ [1]) | HPLC glucosyltransferase assay, product peak area (GSA1^WYJ [2]) | Km [3] [µM] | Km [4] [µM] |
| --- | --- | --- | --- | --- |
| O=c1c(O)c(-c2ccc(O)cc2)oc2cc(O)cc(O)c12 [kaempferol] | the glucosyltransferase activity of GSA1^A246V toward kaempferol and sinapyl alcohol was comparable | the glucosyltransferase activity of GSA1^A349T was comparable to that of GSA1^CG14 |  |  |
| COc1cc(/C=C/CO)cc(OC)c1O [sinapyl alcohol] | the glucosyltransferase activity of GSA1^A246V toward kaempferol and sinapyl alcohol was comparable | the glucosyltransferase activity of GSA1^A349T was comparable to that of GSA1^CG14 |  |  |
| B1 |  |  | 25.54 ± 5.43 | 51.06 ± 7.814 |
